Results taken from article PMC4986899 (RNA, 2016).

Biological target: T1, E. coli MetK (Escherichia coli, UniProt P0A817)
T1 sequence (P0A817 2-384): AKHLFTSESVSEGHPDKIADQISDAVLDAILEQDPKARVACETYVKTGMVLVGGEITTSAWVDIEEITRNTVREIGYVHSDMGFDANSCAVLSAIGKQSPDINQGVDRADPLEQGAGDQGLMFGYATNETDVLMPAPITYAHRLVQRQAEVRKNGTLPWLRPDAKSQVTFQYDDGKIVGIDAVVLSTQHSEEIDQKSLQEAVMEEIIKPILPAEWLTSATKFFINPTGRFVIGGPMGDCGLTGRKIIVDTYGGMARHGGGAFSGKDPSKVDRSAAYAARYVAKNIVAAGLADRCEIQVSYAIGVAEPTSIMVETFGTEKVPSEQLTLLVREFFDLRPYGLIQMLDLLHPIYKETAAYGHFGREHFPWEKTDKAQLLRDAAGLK
Assay: preparative synthesis of […]-methyl S-adenosyl methionine
Format: biochemical
Conditions: co-substrate 1 mM L-methionine methyl-13C; pH 8.2, 100 mM KCl, 10 mM MgCl2, 30 °C

## Nc1ncnc2c1ncn2[C@@H]1O[C@H](COP(=O)(O)OP(=O)(O)OP(=O)(O)O)[C@@H](O)[C@H]1O [ATP]
  preparative synthesis of 13C-methyl S-adenosyl methionine: synthesized from methionine and ATP by the E. coli MetK enzyme
